Measurements from patent US12599560B2, “Lipids and lipid nanoparticle formulations” (Longuide Biopharma Corporation, priority 2023, dated 2026).

Assays:
[1] = Particle size and PDI by dynamic light scattering; assay type: physicochemical
Experimental: The 7.5 μL nucleic acid lipid nanoparticle solution (containing approximately 0.04 mg/mL mRNA) was taken and added with 200 μL ultrapure water, mixed by gentle blowing using a pipette tip, and the particle size of the nanopreparation was detected by dynamic lightscattering (DLS) using a Malvern Dynamic Light Scattering Instrument (Malvern Instruments Ltd., ZEN3700, UK). 27.5 μL nucleic acid lipid nanoparticle solution (containing about 0.04 mg/mL mRNA) was taken and added with 200 μL ultrapure water. A pipette tip was used to gently blow the sample and mix well. The particle size of the nanopreparation was detected by Malvern Dynamic Light Scattering Instrument (Malvern Instruments Ltd., ZEN3700, UK). After the detection, the sample was recovered to an EP tube, and 600 μL of ultrapure water was added, gently blown with a pipette tip, and the potential of the nanopreparation was measured by a Malvern particle size meter.

mice = experiment: In vivo delivery of FLuc-mRNA lipid nanoparticle preparations in mice (IVIS imaging); design: In vivo IVIS / In vivo IVIS (liver) / In vivo IVIS (spleen): unit not given here; conditions: for in vivo delivery efficiency as compared to the benchmark compound SM102: certain formulations
Experimental: 7. In Vivo Delivery of the Nucleic Acid Lipid Nanoparticle Preparations in Mice After the preparation was completed, the preparation was injected intramuscularly (mice rectus femoris muscle of the thigh) or intravenously (mice tail vein), with approximately 75 μL per mouse, for a total of 3 mice. After a certain time of injection, in vivo imaging (PerkinElmer, IVIS Lumina III) was performed. 10-15 minutes before imaging, 200 μL of 15 mg/mL D-Luciferin working solution was injected intraperitoneally, and the imaging analysis was performed using an in vivo imager.

[2] = Table 2, LNP formulation with mRNA
[3] = Table 2, IV, whole body scan, molar ratio DMG-PEG2000:DSPC:Chol:Lipid and N/P
[4] = Table 4, molar ratio 1.40:11.15:38.95:48.50, N/P 36, IV formulation
[5] = Table 4, molar ratio 2.00:4.00:59.00:35.00, N/P 35, IM formulation
[6] = Table 4, molar ratio 1.40:11.15:38.95:48.50, N/P 40, IM formulation
[7] = Table 4, molar ratio 1.50:16.00:34.00:48.50, N/P 55, IV formulation

Particle size (nm) [1, 2] [nm] | PDI ([1]; Table 2, polydispersity value) | SMILES | In vivo IVIS (mice; Table 2, IM, whole body scan) | In vivo IVIS (mice; [3]) | In vivo IVIS (mice; Table 4, IM) | In vivo IVIS (mice; Table 4, IV) | also measured
93.86 ± 0.59 | 0.11 ± 0.02 | CCCCCCCCCCCCNC(=O)C(O)CN(CC(=O)NCCCN1CCN(CCCNC(=O)CN(CC(O)C(=O)NCCCCCCCCCCCC)CC(O)C(=O)NCCCCCCCCCCCC)CC1)CC(O)C(=O)NCCCCCCCCCCCC (stereo not shown) [Compound L0193] | 2.43 × 10^5 | 4.33 × 10^5 |  |  | 
 |  | CCCCCCOC(C)OCCCCCCOC(=O)C(O)CN(CCCN1CCN(CCCN(CC(O)C(=O)OCCCCCCOC(C)OCCCCCC)CC(O)C(=O)OCCCCCCOC(C)OCCCCCC)CC1)CC(O)C(=O)OCCCCCCOC(C)OCCCCCC (stereo not shown) [Compound L0224] |  |  | 3.31 × 10^8 | 4.84 × 10^9 | PDI [1, 4]: 0.07 ± 0.02; Particle size (nm) [1, 4]: 108.57 ± 1.60 nm; PDI [1, 5]: 0.14 ± 0.01; Particle size (nm) [1, 5]: 84.67 ± 0.79 nm
 |  | CC/C=C\CCOCOCCCCCCOC(=O)C(O)CN(CCCN1CCN(CCCN(CC(O)C(=O)OCCCCCCOCOCC/C=C\CC)CC(O)C(=O)OCCCCCCOCOCC/C=C\CC)CC1)CC(O)C(=O)OCCCCCCOCOCC/C=C\CC (stereo not shown) [Compound L0225] |  |  | 3.13 × 10^8 | 2.15 × 10^9 | PDI ([1]; Table 4): 0.10 ± 0.01; Particle size (nm) ([1]; Table 4): 117.87 ± 1.55 nm
 |  | CCCCCCCCCCOC(=O)C(O)CN(CCN1CCN(CCN(CC(O)C(=O)OCCCCCCCCCC)CC(O)C(=O)OCCCCCCCCCC)CC1)CCN(CC(O)C(=O)OCCCCCCCCCC)CC(O)C(=O)OCCCCCCCCCC (stereo not shown) [Compound L0210] |  |  | 2.48 × 10^7 | 6.93 × 10^9 | PDI ([1]; Table 4): 0.15 ± 0.01; Particle size (nm) ([1]; Table 4, molar ratio 1.00:16.00:48.00:35.00, N/P 30, IV formulation): 101.83 ± 0.21 nm; Particle size (nm) [1, 6]: 94.89 ± 0.78 nm
90.47 ± 0.74 | 0.17 ± 0.01 | CCCCCCCCCCNC(=O)C(O)CN(CCN1CCN(CCN(CC(O)C(=O)NCCCCCCCCCC)CC(O)C(=O)NCCCCCCCCCC)CC1)CCN(CC(O)C(=O)NCCCCCCCCCC)CC(O)C(=O)NCCCCCCCCCC (stereo not shown) [Compound L0198] | 9.58 × 10^6 | 4.61 × 10^7 |  |  | 
 |  | CCCCCCCCCCCCNC(=O)C(O)CN(Cc1ccc(CN(CC(O)C(=O)NCCCCCCCCCCCC)CC(O)C(=O)NCCCCCCCCCCCC)cc1)CC(O)C(=O)NCCCCCCCCCCCC (stereo not shown) [Compound L0208] |  |  | 1.94 × 10^6 | 2.27 × 10^5 | PDI ([1]; Table 4): 0.14 ± 0.03; Particle size (nm) ([1]; Table 4): 176.67 ± 1.97 nm
114.43 ± 0.96 | 0.07 ± 0.02 | CCCC/C=C\CCOCOCCCCOC(=O)C(O)CN(CCN1CCN(CCN(CC(O)C(=O)OCCCCOCOCC/C=C\CCCC)CC(O)C(=O)OCCCCOCOCC/C=C\CCCC)CC1)CCN(CC(O)C(=O)OCCCCOCOCC/C=C\CCCC)CC(O)C(=O)OCCCCOCOCC/C=C\CCCC (stereo not shown) [Compound L0202] | 9.20 × 10^7 | 3.73 × 10^9 |  |  | in vivo delivery efficiency as compared to the benchmark compound SM102 (mice; Table 2): superior in vivo delivery efficiency
 |  | CCCCCCCCCCOC(=O)C(O)CN1CCN(CCN(CC(O)C(=O)OCCCCCCCCCC)CC(O)C(=O)OCCCCCCCCCC)CC1 (stereo not shown) [Compound L0182] | 3.25 × 10^7 | 4.99 × 10^6 |  |  | Particle size (nm) ([1]; Table 2, LNP formulation with mRNA, molar ratio 1.09:8.66:30.25:60.00, N/P 30): 89.38 ± 0.09 nm; Particle size (nm) ([1]; Table 2, LNP formulation with mRNA, molar ratio 1.40:11.15:38.95:48.50, N/P 30): 83.26 ± 0.68 nm; PDI ([1]; Table 2, polydispersity value, molar ratio 1.09:8.66:30.25:60.00, N/P 30): 0.16 ± 0.01; PDI ([1]; Table 2, polydispersity value, molar ratio 1.40:11.15:38.95:48.50, N/P 30): 0.14 ± 0.01
119.70 ± 0.61 | 0.07 ± 0.01 | CC/C=C\CCOCOCCCCCCOC(=O)C(O)CN(CCN1CCN(CCN(CC(O)C(=O)OCCCCCCOCOCC/C=C\CC)CC(O)C(=O)OCCCCCCOCOCC/C=C\CC)CC1)CCN(CC(O)C(=O)OCCCCCCOCOCC/C=C\CC)CC(O)C(=O)OCCCCCCOCOCC/C=C\CC (stereo not shown) [Compound L0201] | 2.18 × 10^6 | 4.46 × 10^6 |  |  | In vivo IVIS (liver) (mice; Table 2, IV): 5.29 × 10^8; In vivo IVIS (spleen) (mice; Table 2, IV): 7.89 × 10^7; in vivo delivery efficiency as compared to the benchmark compound SM102 (mice; Table 2): superior in vivo delivery efficiency
90.79 ± 0.65 | 0.17 ± 0.02 | CCCCCCCCCCCCNC(=O)C(O)CN(CCCC(=O)NCCCN1CCN(CCCNC(=O)CCCN(CC(O)C(=O)NCCCCCCCCCCCC)CC(O)C(=O)NCCCCCCCCCCCC)CC1)CC(O)C(=O)NCCCCCCCCCCCC (stereo not shown) [Compound L0195] | 6.81 × 10^5 | 4.54 × 10^5 |  |  | 
 |  | CC/C=C\CCOCOCCCCCCOC(=O)C(O)CN1CCN(CCN(CC(O)C(=O)OCCCCCCOCOCC/C=C\CC)CC(O)C(=O)OCCCCCCOCOCC/C=C\CC)CC1 (stereo not shown) [Compound L0221] |  |  | 1.85 × 10^5 | 3.94 × 10^5 | PDI ([1]; Table 4): 0.07 ± 0.02; Particle size (nm) ([1]; Table 4): 140.97 ± 1.48 nm
 |  | CCCCCCCCCCOC(=O)C(O)CN(CCCN1CCN(CCCN(CC(O)C(=O)OCCCCCCCCCC)CC(O)C(=O)OCCCCCCCCCC)CC1)CC(O)C(=O)OCCCCCCCCCC (stereo not shown) [Compound L0209] |  |  | 7.33 × 10^8 | 1.52 × 10^10 | Particle size (nm) ([1]; Table 4, molar ratio 1.00:6.00:44.50:48.50, N/P 40, IV formulation): 99.95 ± 0.74 nm; Particle size (nm) ([1]; Table 4, molar ratio 1.50:6.00:57.50:35.00, N/P 48, IM formulation): 84.17 ± 0.31 nm
 |  | CCCCCCCCCCCCOC(=O)C(O)CN1CCN(CCN(CC(O)C(=O)OCCCCCCCCCCCC)CC(O)C(=O)OCCCCCCCCCCCC)CC1 (stereo not shown) [Compound L0183] | 2.37 × 10^7 | 5.98 × 10^7 |  |  | Particle size (nm) ([1]; Table 2, LNP formulation with mRNA, molar ratio 1.40:11.15:38.95:48.50, N/P 24): 75.73 ± 0.33 nm; Particle size (nm) ([1]; Table 2, LNP formulation with mRNA, molar ratio 1.63:12.99:45.38:40.00, N/P 24): 94.49 ± 1.06 nm; PDI ([1]; Table 2, polydispersity value, molar ratio 1.40:11.15:38.95:48.50, N/P 24): 0.14 ± 0.01; PDI ([1]; Table 2, polydispersity value, molar ratio 1.63:12.99:45.38:40.00, N/P 24): 0.16 ± 0.01
 |  | CCCCCCOCOCCCCCCOC(=O)C(O)CN1CCN(CCN(CC(O)C(=O)OCCCCCCOCOCCCCCC)CC(O)C(=O)OCCCCCCOCOCCCCCC)CC1 (stereo not shown) [Compound L0184] | 4.88 × 10^6 | 1.17 × 10^8 |  |  | Particle size (nm) ([1]; Table 2, LNP formulation with mRNA, molar ratio 1.09:8.66:30.25:60.00, N/P 50): 128.20 ± 0.95 nm; Particle size (nm) ([1]; Table 2, LNP formulation with mRNA, molar ratio 1.40:11.15:38.95:48.50, N/P 50): 119.60 ± 0.40 nm; PDI ([1]; Table 2, polydispersity value, molar ratio 1.09:8.66:30.25:60.00, N/P 50): 0.09 ± 0.01; PDI ([1]; Table 2, polydispersity value, molar ratio 1.40:11.15:38.95:48.50, N/P 50): 0.06 ± 0.00
 |  | CCCCCCCCCCCCOC(=O)C(O)CN(Cc1ccc(CN(CC(O)C(=O)OCCCCCCCCCCCC)CC(O)C(=O)OCCCCCCCCCCCC)cc1)CC(O)C(=O)OCCCCCCCCCCCC (stereo not shown) [Compound L0207] |  |  | 1.75 × 10^5 | 2.41 × 10^5 | PDI ([1]; Table 4): 0.19 ± 0.00; Particle size (nm) ([1]; Table 4): 172.13 ± 1.53 nm
102.47 ± 0.25 | 0.13 ± 0.02 | CCCCCCCCC(CCCCCC)C(=O)OCCCCCCOC(=O)C(O)CN(CCCN1CCN(CCCN(CC(O)C(=O)OCCCCCCOC(=O)C(CCCCCC)CCCCCCCC)CC(O)C(=O)OCCCCCCOC(=O)C(CCCCCC)CCCCCCCC)CC1)CC(O)C(=O)OCCCCCCOC(=O)C(CCCCCC)CCCCCCCC (stereo not shown) [Compound L0197] | 3.81 × 10^6 | 5.97 × 10^8 |  |  | In vivo IVIS (liver) (mice; Table 2, IV): 2.34 × 10^6; In vivo IVIS (spleen) (mice; Table 2, IV): 7.26 × 10^7
 |  | CCCCCCCCCCCCOC(=O)CCN(CCCN1CCN(CCCN(CCC(=O)OCCCCCCCCCCCC)CCC(=O)OCCCCCCCCCCCC)CC1)CCC(=O)OCCCCCCCCCCCC [L0191-Control, reference compound] |  |  | 1.07 × 10^6 | 2.30 × 10^6 | delivery efficiency, times lower than the hydroxy compound (L0191 or L0199) (mice; IM administration): ~20 times; delivery efficiency, times lower than the hydroxy compound (L0191 or L0199) (mice; IV administration): about 420 times
 |  | CCCCCCCCCCCCOC(=O)CCN(CCC(=O)OCCCCCCCCCCCC)CCN(CCC(=O)OCCCCCCCCCCCC)CCN1CCN(CCN(CCC(=O)OCCCCCCCCCCCC)CCC(=O)OCCCCCCCCCCCC)CC1 [L0199-Control, reference compound] |  |  | 5.84 × 10^6 | 2.12 × 10^7 | PDI [1, 6]: 0.17 ± 0.02; Particle size (nm) [1, 6]: 133.43 ± 1.86 nm; PDI [1, 7]: 0.16 ± 0.03; Particle size (nm) [1, 7]: 144.33 ± 0.31 nm; delivery efficiency, times lower than the hydroxy compound (L0191 or L0199) (mice; IM administration): slightly lower; delivery efficiency, times lower than the hydroxy compound (L0191 or L0199) (mice; IV administration): about 44 times
